Columns and labels:
BK channel = BK channel (Homo sapiens, UniProt Q12791); details: applied to the inside of the membrane; cited from earlier work
BK channels [1] = target: T1, BK channels (Oryctolagus cuniculus, UniProt Q9BG98); assay: Single channel recordings, inside-out patch clamp, voltage ramps, isolated smooth muscle cells of the rabbit bladder; format: cell-based; details: for effect on BK channel activity, in words (SAR discussion based on V1/2 data): inside out patches on rabbit smooth muscle cells
T1 construct: wherein the native BK channels were more sensitive to Ca^2+; from tissue
Method: All experiments were approved by the Dundalk Institute of Technology Animal Care and Use Committee. […] The urinary bladder and most proximal 1.5 cm of the urethra was removed and placed in Krebs solution. Strips of bladder tissue, 0.5 cm in width were dissected, cut into 1 mm^3 pieces and stored in Ca^2+-free Hanks' solution for 30 min prior to cell dispersal. Tissue pieces were incubated in dispersal medium containing (per 5 ml) of Ca^2+-free Hanks' solution: 15 mg collagenase (Sigma type 1A), 1 mg protease (Sigma type XXIV), 10 mg bovine serum albumin (Sigma) and 10 mg trypsin inhibitor (Sigma) for 10-15 min at 37° C. Tissue was then transferred to Ca^2+-free Hanks' solution and stirred for a further 10-15 min to release single smooth muscle cells. These were plated in Petri dishes containing 100 μM Ca^2+ Hanks' solution and stored at 4° C. for use within 8 h. During experiments, the dish containing the cells was continuously perfused with Hanks' solution at 36±1° C. Additionally the cell under study was continuously superfused by means of a custom built close delivery system with a pipette of tip diameter 200 μm placed approximately 300 μm from the cell. The high K^+ solution in the close delivery system could be switched to a drug-containing solution with a dead space time of less than 5 s.
For whole cell recordings pipettes were pulled from borosilicate glass capillary tubing (1.5 mm outer diameter, 1.17 mm inner diameter; Clark Medical Instruments) to a tip of diameter approximately 1-1.5 μm and resistance of 2-4 Mohms. For single channel recordings, pipettes were pulled from borosilicate glass capillary tubing (1.5 mm outer diameter, 0.8 mm inner diameter; Clark Medical Instruments) and fire polished before use. Voltage clamp commands were delivered via an Axopatch 1D or Axon 200B patch clamp amplifiers (Axon Instruments) and membrane currents were recorded by a 12 bit AD/DA converter (Axodata 1200 or Labmaster, Scientific Solutions) interfaced to an Intel computer running pCLAMP software.
All values in (mM): KCl, 140. Glucose, 10, EGTA 1 and HEPES, 10. For free Ca^2+ greater than 300 nM: All values in (mM): KCl, 140. Glucose, 10, H-EDTA 1 and HEPES, 10. The same solution composition is used in the bath as in the patch pipette for these experiments except that the pipette solution contained 100 nM Ca^2+.
In single channel experiments voltage commands were applied using pClamp ramped potentials. This allowed more efficient measurement of slope conductance and channel activation than conventional step depolarisations. Activation curves were calculated by averaging current responses to 15 potential ramps and dividing each data point of the averaged current by the single channel amplitude at that holding potential, after leakage current correction. […] This analysis provides a continuous recording of the number of open channels multiplied by the open probability (NPo) over the entire voltage range. To obtain values for the steepness of the voltage-dependent activation and half-maximal activation voltage, activation curves were fitted with Boltzman functions of the form: NPo=n/{1+exp[−K(V−V1/2)]} where N is the number of channels in the patch, n is the maximal NPo level, K^−1 is the steepness of the voltage-dependent activation (change in potential necessary to cause an e-fold increase in activation) and V1/2 is the voltage at which there is half-maximal activation. Again, all of the experiments were carried out at 36±1° C.
The patches were held at a potential of −100 mV and voltage ramps were then applied from −100 mV up to +100 mV over 2 s.
Patches were held at −100 mV and ramped through to +100 mV and each sweep was repeated 15 times. The same protocol was repeated after the patch was incubated in 1 μM Ca^2+.

BK channels [2] = target: T1, BK channels; assay: Perforated patch whole cell patch clamp, outward BK current in isolated smooth muscle cells; format: cell-based, rabbit; details: 10 μM; steps from −80 mV to +50 mV; holding −60 mV
Method: The cell membrane was perforated using the antibiotic amphotericin B (600 μg·ml^−1).
Standard Hank's solution is used to bathe the cells in these experiments. Isolated smooth muscle cells from rabbit urethra we held at −60 mV. The test protocol involved stepping from −60 mV to −80 mV for 500 msecs, and then stepping the voltage up in +10 mV increments to +50 mV before returning to the holding potential of −60 mV.

L-type calcium channel = assay: Inward L-type calcium current, perforated patch clamp with Cs+ pipette solution, isolated smooth muscle cells of the rabbit bladder; format: cell-based; details: held at −60 mV, stepped to 0 mV for 500 ms
Source text: Using methods described above herein, the patch pipette solution was altered to allow for measurement of inward L-type calcium currents which although present in earlier studies are not visible due to the overwhelming size of the outward BK current. By replacing K^+ with Cs^+ ions, the outward current is now blocked and a prominent inward current carried by Calcium is present. This is the L-type calcium ion channel currents allowing calcium into the cells.
All values in (mM): CsCl, 132.96. MgCl2.6H20, 1. EGTA, 0.5 and HEPES, 10.
With reference to FIG. 5, isolated smooth muscle cells from the rabbit bladder were held at −60 mV and stepped to 0 mV for 500 ms. Pipette solutions contained Cs^+ to block outward K^+ currents.

[3] = Table 2, 10 μM compound, inside-out patch
[4] = Table 1, 10 μM compound, inside-out patch, V1/2 control vs drug

T1 sequence (Q9BG98 whole entry): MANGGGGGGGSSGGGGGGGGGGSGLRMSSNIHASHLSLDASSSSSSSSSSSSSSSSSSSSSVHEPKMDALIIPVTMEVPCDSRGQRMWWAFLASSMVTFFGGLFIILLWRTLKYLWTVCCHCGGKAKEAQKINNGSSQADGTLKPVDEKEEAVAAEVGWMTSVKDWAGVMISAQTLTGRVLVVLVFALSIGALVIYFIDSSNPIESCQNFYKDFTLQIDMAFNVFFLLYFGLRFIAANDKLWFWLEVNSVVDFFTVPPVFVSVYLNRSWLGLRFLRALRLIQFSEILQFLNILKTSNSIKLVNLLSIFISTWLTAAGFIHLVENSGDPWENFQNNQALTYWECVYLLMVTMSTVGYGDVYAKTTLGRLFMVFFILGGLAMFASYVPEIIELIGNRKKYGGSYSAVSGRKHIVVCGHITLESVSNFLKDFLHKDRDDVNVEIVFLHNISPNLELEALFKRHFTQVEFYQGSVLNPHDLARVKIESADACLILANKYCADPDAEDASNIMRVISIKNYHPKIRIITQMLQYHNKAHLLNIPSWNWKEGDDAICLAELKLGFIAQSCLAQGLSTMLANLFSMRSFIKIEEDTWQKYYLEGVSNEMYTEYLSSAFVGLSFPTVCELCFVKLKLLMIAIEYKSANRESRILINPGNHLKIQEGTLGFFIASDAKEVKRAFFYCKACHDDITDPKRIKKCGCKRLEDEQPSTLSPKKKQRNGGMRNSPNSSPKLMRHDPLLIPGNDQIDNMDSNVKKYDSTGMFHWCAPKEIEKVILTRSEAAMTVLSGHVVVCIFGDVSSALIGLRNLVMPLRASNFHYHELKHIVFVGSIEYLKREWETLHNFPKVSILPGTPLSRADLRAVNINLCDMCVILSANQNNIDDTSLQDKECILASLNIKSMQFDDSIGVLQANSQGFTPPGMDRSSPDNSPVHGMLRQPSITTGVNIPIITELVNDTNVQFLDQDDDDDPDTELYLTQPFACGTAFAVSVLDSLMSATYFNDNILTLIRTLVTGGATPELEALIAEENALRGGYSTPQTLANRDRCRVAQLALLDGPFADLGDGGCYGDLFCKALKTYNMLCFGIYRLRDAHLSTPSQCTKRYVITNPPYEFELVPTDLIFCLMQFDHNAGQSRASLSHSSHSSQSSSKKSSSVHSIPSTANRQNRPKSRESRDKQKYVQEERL
BK channel, sequence (Q12791 whole entry, species assumed): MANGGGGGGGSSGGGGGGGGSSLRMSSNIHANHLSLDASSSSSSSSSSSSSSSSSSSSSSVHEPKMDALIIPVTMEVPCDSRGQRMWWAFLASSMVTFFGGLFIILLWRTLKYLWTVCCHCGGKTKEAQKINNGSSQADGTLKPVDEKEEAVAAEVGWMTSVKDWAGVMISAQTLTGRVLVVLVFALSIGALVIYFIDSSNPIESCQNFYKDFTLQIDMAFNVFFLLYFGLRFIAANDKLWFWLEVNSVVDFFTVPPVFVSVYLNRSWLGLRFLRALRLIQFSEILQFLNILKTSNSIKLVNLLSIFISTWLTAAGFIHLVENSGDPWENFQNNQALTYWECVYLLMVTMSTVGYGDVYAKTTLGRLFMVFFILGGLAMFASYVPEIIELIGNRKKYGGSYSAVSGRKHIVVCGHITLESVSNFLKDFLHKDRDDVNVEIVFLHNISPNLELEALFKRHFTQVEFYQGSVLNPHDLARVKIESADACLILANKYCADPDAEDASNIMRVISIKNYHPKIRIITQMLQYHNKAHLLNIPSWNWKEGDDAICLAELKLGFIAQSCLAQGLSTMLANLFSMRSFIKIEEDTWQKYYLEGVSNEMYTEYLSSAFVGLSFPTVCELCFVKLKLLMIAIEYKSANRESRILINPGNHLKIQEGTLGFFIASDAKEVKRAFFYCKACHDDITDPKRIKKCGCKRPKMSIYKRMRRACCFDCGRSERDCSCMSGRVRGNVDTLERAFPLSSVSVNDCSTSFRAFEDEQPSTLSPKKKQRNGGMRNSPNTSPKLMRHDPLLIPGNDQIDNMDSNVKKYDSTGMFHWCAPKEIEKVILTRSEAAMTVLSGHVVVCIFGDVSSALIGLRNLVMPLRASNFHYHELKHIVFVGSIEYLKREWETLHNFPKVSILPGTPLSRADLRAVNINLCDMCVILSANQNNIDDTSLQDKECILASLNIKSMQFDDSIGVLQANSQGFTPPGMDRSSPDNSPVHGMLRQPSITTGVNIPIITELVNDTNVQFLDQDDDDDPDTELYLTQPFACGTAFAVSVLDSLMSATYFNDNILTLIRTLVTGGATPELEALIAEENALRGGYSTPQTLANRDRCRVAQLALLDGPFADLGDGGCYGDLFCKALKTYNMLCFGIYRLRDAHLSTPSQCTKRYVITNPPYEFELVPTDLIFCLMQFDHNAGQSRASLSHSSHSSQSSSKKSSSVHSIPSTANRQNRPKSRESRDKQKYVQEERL
BK channel, sequence (Q16558 whole entry partner, species assumed): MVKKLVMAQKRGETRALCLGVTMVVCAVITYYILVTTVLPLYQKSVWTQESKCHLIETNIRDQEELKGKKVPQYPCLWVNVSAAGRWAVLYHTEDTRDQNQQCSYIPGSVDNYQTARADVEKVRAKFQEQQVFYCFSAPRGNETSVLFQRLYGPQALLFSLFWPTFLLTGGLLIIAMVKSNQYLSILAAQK

## Basilen blue
BK channel
  BK channel activation, in words: moderately potent BK channel activator

## CC(C)c1cccc(Nc2cc(S(=O)(=O)[O-])c(N)c3c2C(=O)c2ccccc2C3=O)c1.[Na+] [SR-5-63, sodium 1-amino-4-((3-isopropylphenyl)amino)-9,10-dioxo-9,10-dihydroanthracene-2-sulfonate]
BK channels [1]; [3]
  ΔV1/2 (mV) in 100 nm Ca^2+: −113.1 mV
BK channels [1]
  effect on BK channel activity, in words (SAR discussion based on V1/2 data): BK channel agonists

## Cc1ccc(Nc2cc(S(=O)(=O)[O-])c(N)c3c2C(=O)c2ccccc2C3=O)cc1C(F)(F)F.[Na+] [SR-5-44, sodium 1-amino-4-(4-methyl-3-(trifluoromethyl)phenylamino)-9,10-dioxo-9,10-dihydroanthracene-2-sulfonate]
BK channels [1]; [4]
  ΔV1/2 (mV) in 100 nm Ca^2+: −145.4 mV

## Nc1c(S(=O)(=O)[O-])cc(Nc2ccc3ccccc3c2)c2c1C(=O)c1ccccc1C2=O.[Na+] [SR-5-72, sodium 1-amino-4-((naphthalen-2-yl)amino)-9,10-dioxo-9,10-dihydroanthracene-2-sulfonate]
BK channels [1]; 1 μM
  shifted the V1/2 by: 93 mV
BK channels [1]; [3]
  ΔV1/2 (mV) in 100 nm Ca^2+: −103.8 mV
BK channels [1]
  effect on BK channel activity, in words (SAR discussion based on V1/2 data): dramatic increase in the activity

## Nc1c(S(=O)(=O)[O-])cc(Nc2cccc3ccccc23)c2c1C(=O)c1ccccc1C2=O.[Na+] [SR-5-66]
BK channels [1]; [3]
  ΔV1/2 (mV) in 100 nm Ca^2+: −53.4 mV
BK channels [1]
  effect on BK channel activity, in words (SAR discussion based on V1/2 data): potency was dropped substantially

## CC(C)c1ccc(Nc2cc(S(=O)(=O)[O-])c(N)c3c2C(=O)c2ccccc2C3=O)cc1.[Na+] [SR-5-99, sodium 1-amino-4-((4-isopropylphenyl)amino)-9,10-dioxo-9,10-dihydroanthracene-2-sulfonate]
BK channels [1]; [3]
  ΔV1/2 (mV) in 100 nm Ca^2+: −83.4 mV
BK channels [1]
  effect on BK channel activity, in words (SAR discussion based on V1/2 data): BK channel openers

## C=C(C)[C@H]1O[C@H]2CC[C@@]3(C)[C@@](O)(CC[C@H]4[C@@H]5OC(C)(C)[C@H]6C[C@@H]7C(=C)Cc8c(Cl)cc9[nH]c(c5c9c8[C@@]76O)[C@@]43C)[C@@]23O[C@H]3[C@H]1O [Penitrem A, reference compound]
BK channels [1]; 100 nM, 1 μM Ca2+, voltage ramp
  effect on single channel openings: abolished the single channel openings

## Nc1c(S(=O)(=O)[O-])cc(Nc2ccc3c(c2)CCCC3)c2c1C(=O)c1ccccc1C2=O.[Na+] [SR-5-69, sodium 1-amino-9,10-dioxo-4-((5,6,7,8-tetrahydronaphthalen-2-yl)amino)-9,10-dihydroanthracene-2-sulfonate]
BK channels [1]; 30 nM, example patch of FIG. 8A
  shift in the activation V1/2: very small shift
BK channels [1]; 1 μM
  shifted the V1/2 by: 110 mV
BK channels [1]; 1 μM, example patch of FIG. 8A
  V1/2 reached in the presence of the drug: approximately +5 mV
BK channels [1]; 1 μM, example patch of FIG. 8A, hyperpolarising direction
  shift of the V1/2: > −100 mV
BK channels [1]; Table 2, 1 μM compound, inside-out patch
  ΔV1/2 (mV) in 100 nm Ca^2+: −101.6 mV
BK channels [1]; increasing concentrations, inside-out patch
  dose dependence of effects on open probability and ΔV1/2 for BK channels: dose-dependent
BK channels [1]
  effect on BK channel activity, in words (SAR discussion based on V1/2 data): dramatic increase in the activity
BK channels [1]; n=4-6 patches containing BK channels, read-out: mean EC50 (Langmuir fit of mean V1/2 against concentration)
  EC50: 95 nM

## Nc1c(S(=O)(=O)[O-])cc(Nc2ccccc2)c2c1C(=O)c1ccccc1C2=O.[Na+] [Acid Blue 25, Sodium 1-Amino-9,10-Dioxo-4-(Phenylamino)-9,10-Dihydroanthracene-2-Sulfonate]
BK channels [2]
  amplitude of the outward BK current compared to control: enhances the amplitude of the BK current
BK channels [1]; [4]
  ΔV1/2 (mV) in 100 nm Ca^2+: −51.0 mV
BK channels [1]; inside out patches, concentration not given
  shifted the V1/2 by: −56 mV

## Nc1c(S(=O)(=O)[O-])cc(Nc2cccc(C(F)(F)F)c2)c2c1C(=O)c1ccccc1C2=O.[Na+] [SR-5-6, sodium 1-amino-9,10-dioxo-4-(3-(trifluoromethyl)phenylamino)-9,10-dihydroanthracene-2-sulfonate]
L-type calcium channel
  inward L-type calcium current amplitude: reduced in amplitude
